Test results as given in patent US20250101029A1, “ORGANIC COMPOUNDS” (INTRA-CELLULAR THERAPIES, INC., priority 2022, published 2025).

Assays:
Details in all cases: qualitative statement
D1 = D1 (Homo sapiens, UniProt P21728); assay: Receptor binding, D1
SERT = SERT (Homo sapiens, UniProt P31645); assay: Receptor binding, SERT
D2 = D2 (Homo sapiens, UniProt P14416); assay: Receptor binding, D2
Mu opiate receptor = Mu opiate receptor (Homo sapiens, UniProt P35372); assay: Receptor binding, Mu opiate receptor
5-HT2A = 5-HT2A (Homo sapiens, UniProt P28223); assay: Receptor binding, 5-HT2A
5-HT2A, sequence (P28223 whole entry): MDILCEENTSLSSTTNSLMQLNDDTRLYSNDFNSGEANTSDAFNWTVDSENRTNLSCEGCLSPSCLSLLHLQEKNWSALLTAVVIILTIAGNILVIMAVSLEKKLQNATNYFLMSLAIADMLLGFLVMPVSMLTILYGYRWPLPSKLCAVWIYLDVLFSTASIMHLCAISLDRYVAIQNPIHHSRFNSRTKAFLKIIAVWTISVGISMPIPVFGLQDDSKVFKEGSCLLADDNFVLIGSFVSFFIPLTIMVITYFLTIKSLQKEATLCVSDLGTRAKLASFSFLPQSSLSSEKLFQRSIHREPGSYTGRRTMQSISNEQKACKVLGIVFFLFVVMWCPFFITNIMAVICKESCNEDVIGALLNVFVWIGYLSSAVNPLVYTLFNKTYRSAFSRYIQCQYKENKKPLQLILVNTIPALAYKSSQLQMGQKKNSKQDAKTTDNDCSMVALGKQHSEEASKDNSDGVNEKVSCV

SERT, sequence (P31645 whole entry): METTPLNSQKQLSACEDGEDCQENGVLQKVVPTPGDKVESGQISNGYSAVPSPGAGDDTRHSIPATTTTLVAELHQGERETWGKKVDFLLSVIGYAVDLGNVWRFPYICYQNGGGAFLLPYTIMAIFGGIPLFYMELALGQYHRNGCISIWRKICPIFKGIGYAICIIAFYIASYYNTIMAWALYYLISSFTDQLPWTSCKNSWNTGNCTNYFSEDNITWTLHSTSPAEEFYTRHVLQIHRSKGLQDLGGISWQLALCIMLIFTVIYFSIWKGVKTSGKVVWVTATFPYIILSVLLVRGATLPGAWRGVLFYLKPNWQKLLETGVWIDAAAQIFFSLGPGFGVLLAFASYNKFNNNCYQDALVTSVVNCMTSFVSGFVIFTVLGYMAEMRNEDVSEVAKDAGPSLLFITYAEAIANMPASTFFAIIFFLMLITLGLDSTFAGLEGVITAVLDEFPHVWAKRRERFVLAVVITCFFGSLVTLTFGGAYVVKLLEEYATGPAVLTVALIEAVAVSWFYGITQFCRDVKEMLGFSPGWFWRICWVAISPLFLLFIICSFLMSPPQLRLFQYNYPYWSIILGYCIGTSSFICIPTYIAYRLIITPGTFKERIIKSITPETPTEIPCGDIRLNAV
D2, sequence (P14416 1-414 isoform P14416-2): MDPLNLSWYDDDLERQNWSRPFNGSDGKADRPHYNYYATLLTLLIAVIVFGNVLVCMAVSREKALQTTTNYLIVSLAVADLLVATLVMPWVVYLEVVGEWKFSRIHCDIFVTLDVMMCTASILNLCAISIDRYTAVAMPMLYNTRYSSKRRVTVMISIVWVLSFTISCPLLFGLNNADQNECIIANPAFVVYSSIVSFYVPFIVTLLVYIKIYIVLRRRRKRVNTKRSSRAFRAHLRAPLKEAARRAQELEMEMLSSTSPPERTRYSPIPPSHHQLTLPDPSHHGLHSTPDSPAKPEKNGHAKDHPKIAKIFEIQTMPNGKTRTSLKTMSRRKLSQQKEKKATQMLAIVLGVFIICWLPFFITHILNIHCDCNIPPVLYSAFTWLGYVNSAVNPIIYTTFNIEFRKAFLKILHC
D1, sequence (P21728 whole entry): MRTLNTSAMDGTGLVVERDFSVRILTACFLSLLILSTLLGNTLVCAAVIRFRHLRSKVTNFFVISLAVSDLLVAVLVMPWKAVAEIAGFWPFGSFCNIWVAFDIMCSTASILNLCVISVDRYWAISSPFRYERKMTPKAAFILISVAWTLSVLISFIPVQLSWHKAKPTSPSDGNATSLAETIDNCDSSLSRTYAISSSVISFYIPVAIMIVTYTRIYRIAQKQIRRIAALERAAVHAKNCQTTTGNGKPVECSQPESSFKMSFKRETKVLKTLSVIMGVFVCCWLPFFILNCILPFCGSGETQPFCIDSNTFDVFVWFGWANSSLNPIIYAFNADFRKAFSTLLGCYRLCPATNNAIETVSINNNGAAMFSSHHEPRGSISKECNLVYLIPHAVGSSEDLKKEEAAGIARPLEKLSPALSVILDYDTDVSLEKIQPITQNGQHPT
Mu opiate receptor, sequence (P35372 whole entry): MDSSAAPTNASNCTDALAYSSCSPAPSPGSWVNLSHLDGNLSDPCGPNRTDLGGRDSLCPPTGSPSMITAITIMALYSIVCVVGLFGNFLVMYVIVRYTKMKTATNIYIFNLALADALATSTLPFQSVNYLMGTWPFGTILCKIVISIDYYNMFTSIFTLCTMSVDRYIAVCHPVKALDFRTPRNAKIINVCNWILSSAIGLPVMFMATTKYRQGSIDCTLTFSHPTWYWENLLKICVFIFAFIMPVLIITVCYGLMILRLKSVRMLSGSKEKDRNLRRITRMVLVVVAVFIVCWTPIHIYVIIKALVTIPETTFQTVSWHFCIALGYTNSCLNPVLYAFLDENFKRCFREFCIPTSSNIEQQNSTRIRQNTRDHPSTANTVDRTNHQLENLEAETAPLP

Compound | D1 receptor binding, in words (D1) | SERT activity, in words (SERT) | D2 receptor binding, in words (D2) | mu-opiate receptor binding, in words (Mu opiate receptor) | 5-HT2A receptor activity, in words (5-HT2A)
O=C1CN2c3c(cccc3[C@@H]3CN(CCCOc4ccc(F)cc4)CC[C@H]32)N1 (racemic) [Example 1, trans-8-(3-(4-fluorophenoxy)propyl)-6b,7,8,9,10,10a-hexahydro-1H-pyrido[3′,4′:4,5]pyrrolo[1,2,3-de]quinoxalin-2(3H)-one] | very strong | no SERT activity | moderate D2 receptor binding | – | –
O=C1CN2c3c(cccc3[C@@H]3CN(CCCOc4ccc(F)cc4)CC[C@@H]32)N1 [Compound A] | – | very little SERT binding | – | – | –
O=C1CN2c3c(cccc3[C@H]3CN(CCCOc4ccc(F)cc4)CC[C@H]32)N1 [Compound B] | moderately strong D1 receptor binding | no SERT activity | weak D2 receptor affinity | only weak mu receptor activity | moderately strong
